In brackets after ≈: the same amount, converted by molar mass.

This data set is described as follows: Solubility in water at room temperature and pH of about 7. Type of data set: physicochemical.

Compound `N[C@@H]1CCCCN(c2c(F)cc3c(=O)c(C(=O)O)cn(C4CC4)c3c2Cl)C1` [amorphous besifloxacin free base, (R)-(+)-7-(3-amino-2,3,4,5,6,7-hexahydro-1H-azepin-1-yl)-1-cyclopropyl-8-chloro-6-fluoro-1,4-dihydro-4-oxoquinoline-3-carboxylic acid] displayed a solubility (pH 7, room temperature) of 516 µg/mL (≈ 1310 µM).

`N[C@@H]1CCCCN(c2c(F)cc3c(=O)c(C(=O)O)cn(C4CC4)c3c2Cl)C1` [besifloxacin free base starting material, (R)-(+)-7-(3-amino-2,3,4,5,6,7-hexahydro-1H-azepin-1-yl)-1-cyclopropyl-8-chloro-6-fluoro-1,4-dihydro-4-oxoquinoline-3-carboxylic acid] had a solubility in water (room temperature) of 73.3 µg/mL (≈ 186 µM).

Usually solubility stands for the concentration that dissolves in the medium under given conditions. Read a high solubility as much dissolved substance.

The values above are taken from patent US8518935B2, “Amorphous besifloxacin solid” (Bausch & Lomb Incorporated, priority 2009, dated 2013).
